From patent US7741354B2, “Inhibitors of glutaminyl cyclase” (Probiodrug AG, priority 2006, dated 2010)

Target: hQC (Homo sapiens, UniProt Q16769)
Assay: Fluorometric (fluorescent) assay of hQC inhibition, IC50
Type: biochemical
Conditions: hQC inhibition; read-out: IC50
Summary of the method: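 QC activity followed at 30° C via pyroglutamyl aminopeptidase-coupled release of fluorophore, using either H-Gln-βNA (0.2 mM; ex/em 320/410 nm; 0.2 M Tris/HCl pH 8.0, 20 mM EDTA) or H-Gln-AMC (ex/em 380/460 nm; 0.05 M Tris/HCl pH 8.0, 5 mM EDTA).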

Sequence of hQC (Q16769 29-361): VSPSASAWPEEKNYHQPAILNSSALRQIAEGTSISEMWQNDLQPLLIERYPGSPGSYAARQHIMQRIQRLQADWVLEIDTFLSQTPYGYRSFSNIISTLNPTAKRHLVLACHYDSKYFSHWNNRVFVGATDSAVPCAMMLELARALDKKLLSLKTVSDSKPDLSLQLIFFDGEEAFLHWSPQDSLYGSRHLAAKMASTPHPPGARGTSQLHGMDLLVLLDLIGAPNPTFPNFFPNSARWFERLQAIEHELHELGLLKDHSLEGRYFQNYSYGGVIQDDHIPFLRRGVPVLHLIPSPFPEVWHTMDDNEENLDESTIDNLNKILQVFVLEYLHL

IC50 | SMILES
5.8 µM | CN(C)c1ccc(C(Nc2ccc3[nH]cnc3c2)c2nnnn2Cc2cccnc2)cc1 (centres unmarked) [compound 115, (1H-Benzoimidazol-5-yl)-[(4-dimethylamino-phenyl)-(1-pyridin-3-ylmethyl-1H-tetrazol-5-yl)-methyl]-amine]
7.6 µM | CC(Cc1ccc2c(c1)OCO2)C(Nc1ccc2[nH]cnc2c1)c1nnnn1C1CCCCC1 (centres unmarked) [compound 116, [3-Benzo[1,3]dioxol-5-yl-1-(1-cyclohexyl-1H-tetrazol-5-yl)-2-methyl-propyl]-(1H-benzoimidazol-5-yl)-amine]
4 µM | CC(C)(C)c1ccc(-n2nnnc2C(Nc2ccc3[nH]cnc3c2)c2ccc3nsnc3c2)cc1 (centres unmarked) [compound 117]
6.7 µM | c1nc2cc(NC(c3ccc4c(c3)OCO4)c3nnnn3CC3CCCO3)ccc2[nH]1 (centres unmarked) [compound 118]
2.2 µM | CC(C)(C)OC(=O)Cn1nnnc1C(Nc1ccc2[nH]cnc2c1)c1ccc2c(c1)OCO2 (centres unmarked) [compound 119, {5-[Benzo[1,3]dioxol-5-yl-(1H-benzoimidazol-5-ylamino)-methyl]-tetrazol-1-yl}-acetic acid tert-butyl ester]
8.5 µM | O=C(Cn1nnnc1C(Nc1ccc2[nH]cnc2c1)c1cccs1)N1CCc2ccccc2C1 (centres unmarked) [compound 120, 2-{5-[(1H-Benzoimidazol-5-ylamino)-thiophen-2-yl-methyl]-tetrazol-1-yl}-1-(3,4-dihydro-1H-isoquinolin-2-yl)-ethanone]
4.9 µM | OCc1ccc(C(Nc2ccc3[nH]cnc3c2)c2nnnn2Cc2ccc(Cl)cc2)o1 (centres unmarked) [compound 121, (5-{(1H-Benzoimidazol-5-ylamino)-[1-(4-chloro-benzyl)-1H-tetrazol-5-yl]-methyl}-furan-2-yl)-methanol]

Same assay, conditions: read-out: IC50

SMILES | IC50
CCOC(=O)C1CCCCC1n1nnnc1C(Nc1ccc2[nH]cnc2c1)c1ccc(Cl)c(F)c1 (centres unmarked) [compound 84] | 6.7 µM
Cc1ccc2occ(C(Nc3ccc4[nH]cnc4c3)c3nnnn3CC3CCCO3)c(=O)c2c1 (centres unmarked) [compound 86, 3-{(1H-Benzoimidazol-5-ylamino)-[1-(tetrahydro-furan-2-ylmethyl)-1H-tetrazol-5-yl]-methyl}-6-methyl-chromen-4-one] | 9.4 µM
COc1cccc(C(Nc2ccc3[nH]cnc3c2)c2nnnn2CC2CCCO2)c1 (centres unmarked) [compound 89, (1H-Benzoimidazol-5-yl)-{(3-methoxy-phenyl)-[1-(tetrahydro-furan-2-ylmethyl)-1H-tetrazol-5-yl]-methyl}-amine] | 7.6 µM
Clc1ccccc1Cn1nnnc1C(Nc1ccc2[nH]cnc2c1)c1cc2ccccc2o1 (centres unmarked) [compound 90, {Benzofuran-2-yl-[1-(2-chloro-benzyl)-1H-tetrazol-5-yl]-methyl}-(1H-benzoimidazol-5-yl)-amine] | 22.2 µM
CC(Cc1ccc2c(c1)OCO2)C(Nc1ccc2[nH]cnc2c1)c1nnnn1CC1CCCO1 (centres unmarked) [compound 93, {3-Benzo[1,3]dioxol-5-yl-2-methyl-1-[1-(tetrahydro-furan-2-ylmethyl)-1H-tetrazol-5-yl]-propyl}-(1H-benzoimidazol-5-yl)-amine] | 7.6 µM
CCOC(=O)C1CCCCC1n1nnnc1C(Nc1ccc2[nH]cnc2c1)c1ccc(Cl)cc1 (centres unmarked) [compound 94] | 9.4 µM
CCCC(C)C(Nc1ccc2[nH]cnc2c1)c1nnnn1CC(=O)N1CCc2ccccc2C1 (centres unmarked) [compound 98, 2-{5-[1-(1H-Benzoimidazol-5-ylamino)-2-methyl-pentyl]-tetrazol-1-yl}-1-(3,4-dihydro-1H-isoquinolin-2-yl)-ethanone] | 6.7 µM
COc1cc(C)c(C(Nc2ccc3[nH]cnc3c2)c2nnnn2C(C)(C)C)cc1C (centres unmarked) [compound 99] | 8.5 µM
CC(c1ccccc1)C(Nc1ccc2[nH]cnc2c1)c1nnnn1CC1CCCO1 (centres unmarked) [compound 100, (1H-Benzoimidazol-5-yl)-{2-phenyl-1-[1-(tetrahydro-furan-2-ylmethyl)-1H-tetrazol-5-yl]-propyl}-amine] | 7.6 µM
c1nc2cc(NC(c3ccc4nsnc4c3)c3nnnn3CC3CCCO3)ccc2[nH]1 (centres unmarked) [compound 105] | 4.9 µM
CC(CC(Nc1ccc2[nH]cnc2c1)c1nnnn1C(C)(C)C)c1ccccc1 (centres unmarked) [compound 106, (1H-Benzoimidazol-5-yl)-[1-(1-tert-butyl-1H-tetrazol-5-yl)-3-phenyl-butyl]-amine] | 6.7 µM
Fc1cc(C(Nc2ccc3[nH]cnc3c2)c2nnnn2C2CCCCC2)ccc1Cl (centres unmarked) [compound 107, (1H-Benzoimidazol-5-yl)-[(4-chloro-3-fluoro-phenyl)-(1-cyclohexyl-1H-tetrazol-5-yl)-methyl]-amine] | 4.9 µM
CN(C)c1ccc(C(Nc2ccc3[nH]cnc3c2)c2nnnn2CC2CCCO2)cc1 (centres unmarked) [compound 108, (1H-Benzoimidazol-5-yl)-{(4-dimethylamino-phenyl)-[1-(tetrahydro-furan-2-ylmethyl)-1H-tetrazol-5-yl]-methyl}-amine] | 5.8 µM
CCCC(Nc1ccc2[nH]cnc2c1)c1nnnn1Cc1ccccc1 (centres unmarked) [compound 110, (1H-Benzoimidazol-5-yl)-[1-(1-benzyl-1H-tetrazol-5-yl)-butyl]-amine] | 5.8 µM
Cc1ccc(C(C)CC(Nc2ccc3[nH]cnc3c2)c2nnnn2CC2CCCO2)o1 (centres unmarked) [compound 111, (1H-Benzoimidazol-5-yl)-{3-(5-methyl-furan-2-yl)-1-[1-(tetrahydro-furan-2-ylmethyl)-1H-tetrazol-5-yl]-butyl}-amine] | 5.8 µM
c1ccc(C(c2ccccc2)n2nnnc2C(Nc2ccc3[nH]cnc3c2)c2ccc3nsnc3c2)cc1 (centres unmarked) [compound 112, [(1-Benzhydryl-1H-tetrazol-5-yl)-benzo[c][1,2,5]thia-diazol-5-yl-methyl]-(1H-benzoimidazol-5-yl)-amine] | 5.8 µM
C1=COC(C(Nc2ccc3[nH]cnc3c2)c2nnnn2C2CCCCC2)CC1 (centres unmarked) [compound 114] | 6.7 µM

The next lines start with the values.

IC50 | SMILES
4.9 µM | Cc1ccc(C(Nc2ccc3[nH]cnc3c2)c2nnnn2CC2CCCO2)cc1C (centres unmarked) [compound 83, (1H-Benzoimidazol-5-yl)-{(3,4-dimethyl-phenyl)-[1-(tetrahydro-furan-2-ylmethyl)-1H-tetrazol-5-yl]-methyl}-amine]
4.9 µM | COc1ccc(C(Nc2ccc3[nH]cnc3c2)c2nnnn2CC2CCCO2)cc1 (centres unmarked) [compound 88, (1H-Benzoimidazol-5-yl)-{(4-methoxy-phenyl)-[1-(tetrahydro-furan-2-ylmethyl)-1H-tetrazol-5-yl]-methyl}-amine]
4.9 µM | C/C=C/C=C/C(Nc1ccc2[nH]cnc2c1)c1nnnn1CC1COC(C)(C)O1 (centres unmarked) [compound 92, (1H-Benzoimidazol-5-yl)-{(2E,4E)-1-[1-(2,2-dimethyl-[1,3]dioxolan-4-ylmethyl)-1H-tetrazol-5-yl]-hexa-2,4-dienyl}-amine]
4.9 µM | CSCCC(Nc1ccc2[nH]cnc2c1)c1nnnn1C(c1ccccc1)c1ccccc1 (centres unmarked) [compound 95, [1-(1-Benzhydryl-1H-tetrazol-5-yl)-3-methylsulfanyl-propyl]-(1H-benzoimidazol-5-yl)-amine]
4.9 µM | Cc1ccc(C(C)CC(Nc2ccc3[nH]cnc3c2)c2nnnn2C2CCCCC2)o1 (centres unmarked) [compound 96, (1H-Benzoimidazol-5-yl)-[1-(1-cyclohexyl-1H-tetrazol-5-yl)-3-(5-methyl-furan-2-yl)-butyl]-amine]
4.9 µM | c1ccc2oc(C(Nc3ccc4[nH]cnc4c3)c3nnnn3CC3CCCO3)cc2c1 (centres unmarked) [compound 101, {Benzofuran-2-yl-[1-(tetrahydro-furan-2-ylmethyl)-1H-tetrazol-5-yl]-methyl}-(1H-benzoimidazol-5-yl)-amine]
4.9 µM | CCOC(=O)C1CCCCC1n1nnnc1C(Nc1ccc2[nH]cnc2c1)c1ccc(Br)cc1 (centres unmarked) [compound 103]
4 µM | CCc1ccc(C(Nc2ccc3[nH]cnc3c2)c2nnnn2Cc2cccnc2)cc1 (centres unmarked) [compound 82, (1H-Benzoimidazol-5-yl)-[(4-ethyl-phenyl)-(1-pyridin-3-ylmethyl-1H-tetrazol-5-yl)-methyl]-amine]
4 µM | CC(C)(C)OC(=O)Cn1nnnc1C(Nc1ccc2[nH]cnc2c1)c1ccc(Cl)c(F)c1 (centres unmarked) [compound 91, {5-[(1H-Benzoimidazol-5-ylamino)-(4-chloro-3-fluoro-phenyl)-methyl]-tetrazol-11-yl}-acetic acid tert-butyl ester]
4 µM | CC(CC(Nc1ccc2[nH]cnc2c1)c1nnnn1CC1CCCO1)c1ccccc1 (centres unmarked) [compound 97, (1H-Benzoimidazol-5-yl)-{3-phenyl-1-[1-(tetrahydro-furan-2-ylmethyl)-1H-tetrazol-5-yl]-butyl}-amine]
4 µM | CCOC(=O)C1CC1C(Nc1ccc2[nH]cnc2c1)c1nnnn1CCc1cccs1 (centres unmarked) [compound 104]
3.1 µM | Fc1ccc2c(C(Nc3ccc4[nH]cnc4c3)c3nnnn3C3CCCCC3)c[nH]c2c1 (centres unmarked) [compound 81, (1H-Benzoimidazol-5-yl)-[(1-cyclohexyl-1H-tetrazol-5-yl)-(6-fluoro-1H-indol-3-yl)-methyl]-amine]
3.1 µM | CC(Cc1ccc2c(c1)OCO2)C(Nc1ccc2[nH]cnc2c1)c1nnnn1Cc1ccccc1Cl (centres unmarked) [compound 113]
2.2 µM | c1ccc2ncc(C(Nc3ccc4[nH]cnc4c3)c3nnnn3CC3CCCO3)cc2c1 (centres unmarked) [compound 102, (1H-Benzoimidazol-5-yl)-{quinolin-3-yl-[1-(tetrahydro-furan-2-ylmethyl)-1H-tetrazol-5-yl]-methyl}-amine]
1.3 µM | COC(=O)c1cccc(C(Nc2ccc3[nH]cnc3c2)c2nnnn2Cc2ccc(Cl)cc2)c1 (centres unmarked) [compound 85, 3-{(1H-Benzoimidazol-5-ylamino)-[1-(4-chloro-benzyl)-1H-tetrazol-5-yl]-methyl}-benzoic acid methyl ester]
1.3 µM | CC(C)(C)OC(=O)Cn1nnnc1C(Nc1ccc2[nH]cnc2c1)c1ccc(Br)cc1 (centres unmarked) [compound 87, {5-[(1H-Benzoimidazol-5-ylamino)-(4-bromo-phenyl)-methyl]-tetrazol-1-yl}-acetic acid tert-butyl ester]
1.3 µM | COc1ccc(C(Nc2ccc3[nH]cnc3c2)c2nnnn2CC2CCCO2)cc1Br (centres unmarked) [compound 109, (1H-Benzoimidazol-5-yl)-{(3-bromo-4-methoxy-phenyl)-[1-(tetrahydro-furan-2-ylmethyl)-1H-tetrazol-5-yl]-methyl}-amine]
